Source: PubChem BioAssay (NCI)
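Exposure lasted 48 hours, with cells grown in 96-well plates and compounds tested at five concentrations. TGI: total growth inhibition.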

How the values were obtained:
Assay in all cases: NCI anticancer screen, dose series, 48 h
OVCAR-5 ovarian = system: OVCAR-5 ovarian
OVCAR-3 ovarian = system: OVCAR-3 ovarian
RPMI-8226 leukemia = system: RPMI-8226 leukemia
MDA-N = system: MDA-N
OVCAR-4 ovarian = system: OVCAR-4 ovarian
NCI-H522 lung = system: NCI-H522 lung
OVCAR-8 ovarian = system: OVCAR-8 ovarian
SF-268 CNS = system: SF-268 CNS
MDA-MB-231 breast = system: MDA-MB-231 breast
HOP-62 NSCLC = system: HOP-62 NSCLC
ACHN renal = system: ACHN renal
UACC-62 melanoma = system: UACC-62 melanoma
SNB-19 CNS = system: SNB-19 CNS
CAKI-1 renal = system: CAKI-1 renal
U251 CNS = system: U251 CNS
COLO 205 colon = system: COLO 205 colon
SK-MEL-5 melanoma = system: SK-MEL-5 melanoma
PC-3 prostate = system: PC-3 prostate
DU-145 prostate = system: DU-145 prostate
M14 melanoma = system: M14 melanoma

SMILES	TGI (OVCAR-5 ovarian)	TGI (OVCAR-3 ovarian)	TGI (RPMI-8226 leukemia)	TGI (MDA-N)	TGI (OVCAR-4 ovarian)	TGI (NCI-H522 lung)	TGI (OVCAR-8 ovarian)	TGI (SF-268 CNS)	TGI (MDA-MB-231 breast)	TGI (HOP-62 NSCLC)	TGI (ACHN renal)	TGI (UACC-62 melanoma)	TGI (SNB-19 CNS)	TGI (CAKI-1 renal)	TGI (U251 CNS)	TGI (COLO 205 colon)	TGI (SK-MEL-5 melanoma)	TGI (PC-3 prostate)	TGI (DU-145 prostate)	TGI (M14 melanoma)
CC(=O)OCC1OC(SC2=N/C(=C\c3cc4c(=O)c5ccccc5sc4s3)C(=O)N2c2ccccc2)C(OC(C)=O)C(OC(C)=O)C1OC(C)=O (centres undefined)	> 100 µM	> 100 µM	> 100 µM	> 100 µM	> 100 µM	> 100 µM	> 100 µM	> 100 µM	> 100 µM	> 100 µM	> 100 µM	> 100 µM	> 100 µM	> 100 µM	62.8 µM	> 100 µM	> 100 µM	> 100 µM	> 100 µM	
NC(=O)N/N=C1\CCCCc2ccccc21	> 10 µM	> 10 µM	> 10 µM	> 10 µM	> 10 µM	> 10 µM	> 10 µM	> 10 µM	> 10 µM	> 10 µM	> 10 µM		> 10 µM	> 10 µM	> 10 µM	> 10 µM		> 10 µM	> 10 µM	> 10 µM
CCCC1(NC(=O)C(F)(F)F)CC(OC)OC2COC(c3ccccc3)OC21 (centres undefined)	> 100 µM	> 100 µM		> 100 µM	> 100 µM	> 100 µM	> 100 µM	> 100 µM	> 100 µM	> 100 µM	> 100 µM	> 100 µM	> 100 µM	> 100 µM	> 100 µM	48.6 µM	45.2 µM	> 100 µM	> 100 µM	> 100 µM
CN(C)CCCNC(=O)CCNC(=O)c1cc(NC(=O)c2cc(NC(=O)c3cc(NC(=O)c4nc(NC(=O)CCCNC(=O)c5cc(NC(=O)c6cc(NC(=O)c7cc(NC(=O)c8nccn8C)cn7C)cn6C)cn5C)cn4C)cn3C)cn2C)cn1C	> 100 µM	> 100 µM	> 100 µM	> 100 µM	> 100 µM	> 100 µM	> 100 µM	> 100 µM	> 100 µM	> 100 µM	> 100 µM		> 100 µM	> 100 µM	> 100 µM	> 100 µM	> 100 µM	> 100 µM	> 100 µM	> 100 µM
C/C(=N/NC(=S)Nc1ccc([N+](=O)[O-])cc1)c1cccc(/C(C)=N\NC(=S)Nc2ccc([N+](=O)[O-])cc2)n1	21.7 µM		8.8 µM	15.1 µM	49.4 µM	21.2 µM		> 100 µM	17.7 µM	11.1 µM	1.14 µM	2.87 µM	17.8 µM	8.06 µM	14.6 µM	15.7 µM	7.29 µM	18.7 µM	> 37.7 µM	2.7 µM
COc1ccc(OCc2nc3cc(C(F)(F)F)ccc3nc2-c2ccccc2)cc1	> 100 µM	> 100 µM	> 100 µM	> 100 µM	> 100 µM		> 100 µM	> 100 µM	> 100 µM	> 100 µM	> 100 µM	> 100 µM	> 100 µM	> 100 µM	> 100 µM	> 100 µM	> 100 µM	> 100 µM	> 100 µM	> 100 µM
O=C(/C=C/c1ccccc1)/C=N/N1C(=S)N(c2ccccc2)C(=Nc2ccccc2)C1=Nc1ccccc1	> 100 µM	> 100 µM	> 100 µM	> 100 µM		62.9 µM	> 100 µM	> 100 µM	> 100 µM	> 100 µM	> 100 µM	> 100 µM	> 100 µM	> 100 µM	> 100 µM	> 100 µM	> 100 µM	> 100 µM	> 100 µM	> 100 µM
CC(C)(Br)C(Br)CCC(C)(Br)C(Br)CO (centres undefined)		> 10 µM	> 10 µM	> 10 µM	> 10 µM	> 10 µM	> 10 µM	> 10 µM	> 10 µM	> 10 µM	> 10 µM		> 10 µM	> 10 µM	> 10 µM	> 10 µM	> 10 µM	> 10 µM	> 10 µM	> 10 µM
COc1ccc2oc(=N)c(C(=O)NCc3ccccc3)cc2c1	> 100 µM	> 100 µM	> 100 µM	59.9 µM	> 100 µM	43.5 µM	40.4 µM	52.5 µM	58.1 µM	55.8 µM	73.9 µM		> 100 µM	> 100 µM	37.2 µM	> 100 µM	> 100 µM	> 100 µM	88.8 µM	> 100 µM
CCOC(=O)c1ccc(N=C2C(=S)N(c3ccc(C(=O)OCC)cc3)C(=N)N2/N=C/c2ccccc2)cc1	40.5 µM	28.8 µM	> 100 µM	33 µM		6.1 µM	> 100 µM	52 µM	32.6 µM			38.3 µM	44.5 µM	42.2 µM		25 µM	35.6 µM	18.4 µM	> 100 µM	24.9 µM
CC(=O)N1C(=O)/C(=C\C(=O)c2ccc([N+](=O)[O-])cc2)c2ccccc21	> 100 µM	32.2 µM		49.2 µM	34.5 µM	30.9 µM	> 100 µM	49.2 µM	84.5 µM	> 100 µM	29.6 µM	38.1 µM	> 100 µM	41.2 µM	46.4 µM	41.1 µM	> 100 µM	58.4 µM	> 100 µM	> 100 µM
COCCN(C(C)=O)C1CCC2(SCCS2)c2[nH]c3ccccc3c21 (centres undefined)	> 100 µM	> 100 µM	> 100 µM	> 100 µM		> 100 µM	> 100 µM	> 100 µM	> 100 µM	> 100 µM	> 100 µM		> 100 µM	> 100 µM	> 100 µM	> 100 µM	> 100 µM	> 100 µM	> 100 µM	
C=CCOc1ccc(/C(N=Nc2ccc([N+](=O)[O-])cc2)=N/NC(=O)c2ccccc2)cc1OC	> 100 µM	> 100 µM		> 100 µM	> 100 µM	> 100 µM	> 100 µM	> 100 µM	> 100 µM	> 100 µM	> 100 µM	> 100 µM	> 100 µM	> 100 µM	> 100 µM	> 100 µM	> 100 µM	> 100 µM	> 100 µM	> 100 µM
CC(=O)N1C(c2[nH]c3ccccc3c2-c2ccccc2)CCN1c1ccccc1 (centres undefined)	> 10 µM	> 10 µM	> 10 µM	> 10 µM	> 10 µM	> 10 µM	> 10 µM	> 10 µM	> 10 µM	> 10 µM	> 10 µM		> 10 µM	> 10 µM		> 10 µM	> 10 µM	> 10 µM	> 10 µM	> 10 µM
CC(=O)OCOC(=O)CN(CC(=O)OCOC(C)=O)Cc1cc2c(cc1OC(C)=O)Oc1cc(OC(C)=O)c(CN(CC(=O)OCOC(C)=O)CC(=O)OCOC(C)=O)cc1C21OC(=O)c2ccccc21	11.1 µM	2.98 µM		1.32 µM	3.42 µM	1.17 µM	3.23 µM	4.22 µM	3.64 µM	3.48 µM	4.02 µM	1.19 µM	6.16 µM	6.77 µM	8.5 µM	1.86 µM	2.12 µM	4.82 µM	6.35 µM	3.68 µM
O=C1C(Cl)=C(OCCCCl)C(=O)c2c(O)ccc(O)c21	26.4 µM	6.77 µM	5.58 µM	2.98 µM	7.14 µM		20.9 µM	8.61 µM	6 µM	22 µM	16.3 µM	3.9 µM	32.5 µM	2.51 µM	13.8 µM	3.09 µM	3.33 µM	12.7 µM	22.8 µM	2.96 µM
CC(=O)N1C(Nc2ccccn2)CCN1c1ccccc1 (centres undefined)	> 10 µM	> 10 µM	> 10 µM	> 10 µM	> 10 µM	> 10 µM	> 10 µM	> 10 µM	> 10 µM	> 10 µM	> 10 µM		> 10 µM	> 10 µM		> 10 µM	> 10 µM	> 10 µM	> 10 µM	> 10 µM
S=c1sc2c(s1)SCCCCSCCCCSc1sc(=S)sc1SCCCCSCCCCS2	> 100 µM	> 100 µM	> 100 µM	> 100 µM		> 100 µM	> 100 µM	> 100 µM	> 100 µM	> 100 µM	> 100 µM	> 100 µM	> 100 µM	> 100 µM	> 100 µM	> 100 µM	> 100 µM	> 100 µM	> 100 µM	> 100 µM
Cc1ccc(C2=Nc3cccc4cccc(c34)N2)cc1		> 100 µM	> 100 µM	> 100 µM	> 100 µM	> 100 µM	> 100 µM	> 100 µM	> 100 µM	> 100 µM	> 100 µM	> 100 µM	> 100 µM	> 100 µM	> 100 µM	> 100 µM	> 100 µM	> 100 µM	> 100 µM	> 100 µM
CSc1ncc2c(C#N)c3sc4ccccc4n3c(=O)c2n1	> 100 µM	> 100 µM	> 100 µM	> 100 µM	> 100 µM		> 100 µM	52.9 µM	> 100 µM	> 100 µM	> 100 µM	> 100 µM	> 100 µM	> 100 µM	> 100 µM	> 100 µM	> 100 µM	> 100 µM	> 100 µM	> 100 µM
C=CCOc1ccc(/C(N=Nc2ccc(Cl)cc2)=N/NC(=O)c2ccccc2)cc1OC	> 100 µM	> 100 µM		> 100 µM	> 100 µM	> 100 µM	> 100 µM	> 100 µM	> 100 µM	> 100 µM	> 100 µM	> 100 µM	> 100 µM	> 100 µM	> 100 µM	> 100 µM	> 100 µM	> 100 µM	> 100 µM	> 100 µM
O=C1c2c(ccc3c2CCCC3)CC12Cc1ccc3c(c1C2=O)CCCC3	> 100 µM	> 100 µM	> 100 µM	> 100 µM	> 100 µM	> 100 µM	> 100 µM	> 100 µM	> 100 µM	> 100 µM	> 100 µM		> 100 µM		> 100 µM		> 100 µM	> 100 µM	> 100 µM	> 100 µM
CC(=O)CCCCC(=O)Nc1ccc(CC(NC(=O)OC(C)(C)C)C(=O)NCC(=O)OCc2ccccc2)cc1 (centres undefined)	> 100 µM	27.9 µM	39.5 µM	38.6 µM	27.6 µM	57.9 µM	39.7 µM	48.3 µM	48.3 µM	26.8 µM	> 100 µM		55 µM	29.1 µM	32.7 µM	34.7 µM	27.8 µM	27.5 µM	88.5 µM	55.2 µM
N=c1oc2cc(O)ccc2cc1C(=O)NCc1ccccc1	> 100 µM	57.9 µM	39.9 µM	49.7 µM	> 100 µM	39.1 µM	68.1 µM	76.3 µM	65.5 µM	> 100 µM	> 100 µM		96.9 µM	69.7 µM	> 100 µM	25.4 µM	29.5 µM	> 100 µM	56.4 µM	> 100 µM
